Molecular target: T1, P2X7 (UniProt Q99572)
T1 sequence (Q99572 1-595): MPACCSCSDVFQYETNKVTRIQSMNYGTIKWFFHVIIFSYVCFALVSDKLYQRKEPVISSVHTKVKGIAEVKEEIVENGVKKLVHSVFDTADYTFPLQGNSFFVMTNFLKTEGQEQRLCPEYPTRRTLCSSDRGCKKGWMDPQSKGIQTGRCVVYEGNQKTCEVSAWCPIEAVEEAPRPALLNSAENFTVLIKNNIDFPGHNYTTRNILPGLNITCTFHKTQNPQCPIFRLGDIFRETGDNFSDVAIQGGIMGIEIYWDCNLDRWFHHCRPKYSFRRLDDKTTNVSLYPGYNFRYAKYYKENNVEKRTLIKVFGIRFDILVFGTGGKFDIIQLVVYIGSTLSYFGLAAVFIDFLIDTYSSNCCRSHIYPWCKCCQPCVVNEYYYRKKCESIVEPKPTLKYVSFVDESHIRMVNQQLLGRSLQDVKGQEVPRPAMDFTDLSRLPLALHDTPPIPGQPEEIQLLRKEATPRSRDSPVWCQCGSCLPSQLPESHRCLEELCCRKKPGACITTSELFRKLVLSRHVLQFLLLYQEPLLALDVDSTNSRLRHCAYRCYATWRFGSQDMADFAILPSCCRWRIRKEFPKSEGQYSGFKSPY
Assay: pIC50 values for P2X7 (Table 1)
Type: cell-based
Method in brief: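 Fluo-3-loaded 1321N1 cells expressing human P2X7 or HEK293 cells expressing rat P2X7, preincubated 20 min at room temperature with antagonist in HBSS/Hepes/probenecid buffer with 2 mM CaCl2. BzATP agonist at 100 μM final (human) or 5 μM final (rat); fluorescence read 5 min, peak normalized to 5 μM ionomycin response.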

| SMILES | pIC50 |
| --- | --- |
| O=C1C=CN(C(=O)Nc2ccccc2)[C@H](c2ccc(F)cc2)C1 [Compound 126, (S)-2-(4-Fluoro-phenyl)-4-oxo-3,4-dihydro-2H-pyridine-1-carboxylic acid phenylamide] | 6.18 |
| CN1C(=O)CCc2cc(Br)c(NC(=O)N3C=CC(=O)C[C@H]3c3ccc(F)cc3)cc21 [Compound 128, (S)-2-(4-Fluoro-phenyl)-4-oxo-3,4-dihydro-2H-pyridine-1-carboxylic acid (6-bromo-1-methyl-2-oxo-1,2,3,4-tetrahydro-quinolin-7-yl)-amide] | 7.595 |
| Cc1cc(Cl)c(CN2CCOCC2)cc1NC(=O)N1C=CC(=O)C[C@H]1c1ccc(F)cc1 [Compound 129, (S)-2-(4-Fluoro-phenyl)-4-oxo-3,4-dihydro-2H-pyridine-1-carboxylic acid (4-chloro-2-methyl-5-morpholin-4-ylmethyl-phenyl)-amide] | 6.945 |
| COc1cccc(NC(=O)N2C=CC(=O)C[C@H]2c2ccc(F)cc2)c1C [Compound 132, (S)-2-(4-Fluoro-phenyl)-4-oxo-3,4-dihydro-2H-pyridine-1-carboxylic acid (3-methoxy-2-methyl-phenyl)-amide] | 8.57 |
| O=C1C=CN(C(=O)Nc2ccc3c(c2)NC(=O)C3)[C@H](c2ccc(F)cc2)C1 [Compound 134, (S)-2-(4-Fluoro-phenyl)-4-oxo-3,4-dihydro-2H-pyridine-1-carboxylic acid (2-oxo-2,3-dihydro-1H-indol-6-yl)-amide] | 5.385 |
| O=C1C=CN(C(=O)Nc2cc3c(cc2Br)OCCO3)[C@H](c2ccc(F)cc2)C1 [Compound 136, (S)-2-(4-Fluoro-phenyl)-4-oxo-3,4-dihydro-2H-pyridine-1-carboxylic acid (7-bromo-2,3-dihydro-benzo[1,4]dioxin-6-yl)-amide] | 8.095 |
| Cc1ccc(NC(=O)N2C=CC(=O)C[C@H]2c2ccc(F)cc2)cc1 [Compound 137, (S)-2-(4-Fluoro-phenyl)-4-oxo-3,4-dihydro-2H-pyridine-1-carboxylic acid p-tolylamide] | 6.57 |
| Cc1cc2ccn(C)c2cc1NC(=O)N1C=CC(=O)C[C@H]1c1ccc(F)cc1 [Compound 140, (S)-2-(4-Fluoro-phenyl)-4-oxo-3,4-dihydro-2H-pyridine-1-carboxylic acid (1,5-dimethyl-1H-indol-6-yl)-amide] | 8.565 |
| Cc1nn(C)c2cc(NC(=O)N3C=CC(=O)C[C@H]3c3ccc(F)cc3)ccc12 [Compound 145, (S)-2-(4-Fluoro-phenyl)-4-oxo-3,4-dihydro-2H-pyridine-1-carboxylic acid (1,3-dimethyl-1H-indazol-6-yl)-amide] | 6.535 |
| Cn1cc2cc(NC(=O)N3C=CC(=O)C[C@H]3c3ccc(F)cc3)ccc2n1 [Compound 148, (S)-2-(4-Fluoro-phenyl)-4-oxo-3,4-dihydro-2H-pyridine-1-carboxylic acid (2-methyl-2H-indazol-5-yl)-amide] | 6.87 |
| CCc1c(NC(=O)N2C=CC(=O)C[C@H]2c2ccc(F)cc2)ccc2ncccc12 [Compound 149, (S)-2-(4-Fluoro-phenyl)-4-oxo-3,4-dihydro-2H-pyridine-1-carboxylic acid (5-ethyl-quinolin-6-yl)-amide] | 8.445 |
| Cc1c(CCO)cccc1NC(=O)N1C=CC(=O)C[C@H]1c1ccc(F)cc1 [Compound 150, (S)-2-(4-Fluoro-phenyl)-4-oxo-3,4-dihydro-2H-pyridine-1-carboxylic acid [3-(2-hydroxy-ethyl)-2-methyl-phenyl]-amide] | 7.835 |
| Cc1cc2ccn(CCO)c2cc1NC(=O)N1C=CC(=O)C[C@H]1c1ccc(F)cc1 [Compound 156, (S)-2-(4-Fluoro-phenyl)-4-oxo-3,4-dihydro-2H-pyridine-1-carboxylic acid [1-(2-hydroxy-ethyl)-5-methyl-1H-indol-6-yl]-amide] | 8.155 |

Further lines, results first:

| pIC50 | SMILES |
| --- | --- |
| 7.615 | Cc1cc(Cl)c(CN(CCO)CCO)cc1NC(=O)N1C=CC(=O)C[C@H]1c1ccc(F)cc1 [Compound 127, (S)-2-(4-Fluoro-phenyl)-4-oxo-3,4-dihydro-2H-pyridine-1-carboxylic acid (5-{[bis(2-hydroxy-ethyl)-amino]-methyl}-4-chloro-2-methyl-phenyl)-amide] |
| 7.12 | Cc1cccc(NC(=O)N2C=CC(=O)C[C@H]2c2ccc(F)cc2)c1 [Compound 130, (S)-2-(4-Fluoro-phenyl)-4-oxo-3,4-dihydro-2H-pyridine-1-carboxylic acid m-tolylamide] |
| 7.53 | Cc1ccccc1NC(=O)N1C=CC(=O)C[C@H]1c1ccc(F)cc1 [Compound 131, (S)-2-(4-Fluoro-phenyl)-4-oxo-3,4-dihydro-2H-pyridine-1-carbxoylic acid o-tolylamide] |
| 8.06 | Cc1cc(Cl)c(CCO)cc1NC(=O)N1C=CC(=O)C[C@H]1c1ccc(F)cc1 [Compound 133, (S)-2-(4-Fluoro-phenyl)-4-oxo-3,4-dihydro-2H-pyridine-1-carboxylic acid [4-chloro-5-(2-hydroxy-ethyl)-2-methyl-phenyl]-amide] |
| 8.34 | Cc1c(Cl)cccc1NC(=O)N1C=CC(=O)C[C@H]1c1ccc(F)cc1 [Compound 138, (S)-2-(4-Fluoro-phenyl)-4-oxo-3,4-dihydro-2H-pyridine-1-carboxylic acid (3-chloro-2-methyl-phenyl)-amide] |
| 7.79 | Cc1c(CO)cccc1NC(=O)N1C=CC(=O)C[C@H]1c1ccc(F)cc1 [Compound 139, (S)-2-(4-Fluoro-phenyl)-4-oxo-3,4-dihydro-2H-pyridine-1-carboxylic acid (3-hydroxymethyl-2-methyl-phenyl)-amide] |
| 6.185 | CNC(=O)c1cccc(NC(=O)N2C=CC(=O)C[C@H]2c2ccc(F)cc2)c1C [Compound 141, (S)-2-(4-Fluoro-phenyl)-4-oxo-3,4-dihydro-2H-pyridine-1-carboxylic acid (2-methyl-3-methylcarbamoyl-phenyl)-amide] |
| 6.71 | Cc1cc(Cl)c(OC2CCNCC2)cc1NC(=O)N1C=CC(=O)C[C@H]1c1ccc(F)cc1 [Compound 142, (S)-2-(4-Fluoro-phenyl)-4-oxo-3,4-dihydro-2H-pyridine-1-carboxylic acid [4-chloro-2-methyl-5-(piperidin-4-yloxy)-phenyl]-amide] |
| 7.825 | Cc1cc2c(cc1NC(=O)N1C=CC(=O)C[C@H]1c1ccc(F)cc1)OCCN2C [Compound 143, (S)-2-(4-Fluoro-phenyl)-4-oxo-3,4-dihydro-2H-pyridine-1-carboxylic acid (4,6-dimethyl-3,4-dihydro-2H-benzo[1,4]oxazin-7-yl)-amide] |
| 6.215 | Cc1c(CC(=O)OC(C)(C)C)cccc1NC(=O)N1C=CC(=O)C[C@H]1c1ccc(F)cc1 [Compound 144, (3-{[(S)-2-(4-Fluoro-phenyl)-4-oxo-3,4-dihydro-2H-pyridine-1-carbonyl]amino}-2-methyl-phenyl)-acetic acid tert-butyl ester] |
| 5.615 | Cc1c2ccc(NC(=O)N3C=CC(=O)C[C@H]3c3ccc(F)cc3)cc2nn1C [Compound 146, (S)-2-(4-Fluoro-phenyl)-4-oxo-3,4-dihydro-2H-pyridine-1-carboxylic acid (2,3-dimethyl-2H-indazol-6-yl)-amide] |
| 5.505 | Cn1cc2ccc(NC(=O)N3C=CC(=O)C[C@H]3c3cccc(F)c3)cc2n1 [Compound 147, (S)-2-(3-Fluoro-phenyl)-4-oxo-3,4-dihydro-2H-pyridine-1-carbxoylic acid (2-methyl-2H-indazol-6-yl)-amide] |
| 5.975 | Cc1c2ccc(NC(=O)N3C=CC(=O)C[C@H]3c3ccc(F)cc3)c(Br)c2nn1C [Compound 151, (S)-2-(4-Fluoro-phenyl)-4-oxo-3,4-dihydro-2H-pyridine-1-carboxylic acid (7-bromo-2,3-dimethyl-2H-indazol-6-yl)-amide] |
| 7.355 | O=C1C=CN(C(=O)Nc2cccc3c2CCO3)[C@H](c2ccc(F)cc2)C1 [Compound 152, (S)-2-(4-Fluoro-phenyl)-4-oxo-3,4-dihydro-2H-pyridine-1-carboxylic acid (2,3-dihydro-benzofuran-4-yl)-amide] |
| 7.85 | CCc1cc2ncccc2cc1NC(=O)N1C=CC(=O)C[C@H]1c1ccc(F)cc1 [Compound 153, (S)-2-(4-Fluoro-phenyl)-4-oxo-3,4-dihydro-2H-pyridine-1-carboxylic acid (7-ethyl-quinolin-6-yl)-amide] |
| 8.64 | O=C1C=CN(C(=O)Nc2cccc3ncccc23)[C@H](c2ccc(F)cc2)C1 [Compound 154, (S)-2-(4-Fluoro-phenyl)-4-oxo-3,4-dihydro-2H-pyridine-1-carboxylic acid quinolin-5-ylamide] |
| 7.12 | Cc1cc(F)c(F)cc1NC(=O)N1C=CC(=O)C[C@H]1c1ccc(F)cc1 [Compound 155, (S)-2-(4-Fluoro-phenyl)-4-oxo-3,4-dihydro-2H-pyridine-1-carboxylic acid (4,5-difluoro-2-methyl-phenyl)-amide] |
| 6.43 | O=C1C=CN(C(=O)Nc2cc(F)c(F)cc2Br)C(c2ccc(F)cc2)C1 (stereo not shown) [Compound 157, 2-(4-Fluoro-phenyl)-4-oxo-3,4-dihydro-2H-pyridine-1-carboxylic acid (2-bromo-4,5-difluoro-phenyl)-amide] |

From patent US8153809B2, “Dihydropyridone ureas as P2X7 modulators” (Roche Palo Alto LLC, priority 2008, dated 2012)
